Source: patent US12006553B2, “Companion diagnostics for mitochondrial inhibitors” (priority 2017, dated 2024)
pIC50: −log10 of the molar value.

How the values were obtained:
[1] = system: DoxyR-CSCs (Doxy-resistant (DoxyR)-MCF7 cells); test: Sensitivity of Doxy-resistant CSCs to other metabolic therapies; assay type: cell-based
From the text: One concern with doxycycline therapy is the potential for the development of drug-resistance in CSCs. To investigate this issue, the inventors developed and characterized the phenotypic behavior of Doxy-resistant (DoxyR)-MCF7 cells.

[2] = system: cancer stem cells (CSCs); test: CSC propagation / 3D spheroid (mammosphere) formation on low-attachment plates; assay type: cell-based; details: for inhibition of CSC propagation / 3D spheroid formation (in words): anchorage-independent growth; for pIC50: CSCs, read-out: IC-50 for inhibition of CSC propagation
From the text: Because CSCs are relatively “rare”, little is known about their metabolic properties. […] Under such conditions, the majority (more than 90%) of “bulk” cancer cells die via apoptosis, while only the CSCs survive and propagate, ultimately resulting in the formation of 3D spheroid structures after about 5 days. Each 3D spheroid is clonally formed from a single CSC. For breast CSCs, these 3D spheroids are also known as tumor-spheres or mammospheres. The generation of these 3D spheroids is thought to mimic the process of tumor formation and/or metastasis, thus providing a model for drug discovery and functional validation.

[3] = system: HMGR (3-hydroxy-3-methylglutaryl-CoA-reductase); test: Inhibition of mevalonate metabolism; details: statin-like

SMILES: O=C(Nc1ccc([N+](=O)[O-])cc1Cl)c1cc(Cl)ccc1O [Niclosamide]
- sensitivity of DoxyR-CSCs to the drug [1]: sensitive

SMILES: CCc1c2c(nc3ccc(OC(=O)N4CCC(N5CCCCC5)CC4)cc13)-c1cc3c(c(=O)n1C2)COC(=O)[C@]3(O)CC [Irinotecan]
- sensitivity of DoxyR-CSCs to the drug [1]: sensitive

SMILES: CC(C)(C)C(O)/C=C/c1ccc2c(c1)OCO2 (centres unmarked) [Stiripentol]
- sensitivity of DoxyR-CSCs to the drug [1]: sensitive

SMILES: C[C@@H]1O[C@@H](O[C@@H]2[C@@H](Oc3cc(O)c4c(c3)O[C@H](c3ccc(O)cc3)CC4=O)O[C@@H](COC(=O)C[C@@](C)(O)CC(=O)O)[C@H](O)[C@H]2O)[C@@H](O)[C@H](O)[C@H]1O [melitidin]
- inhibition of CSC propagation / 3D spheroid formation (in words) [2]: inhibit
- inhibition of mevalonate metabolism [3]: inhibit

SMILES: CNC(=O)c1cc(Oc2ccc(NC(=O)Nc3ccc(Cl)c(C(F)(F)F)c3)cc2)ccn1 [Sorafenib]
- sensitivity of DoxyR-CSCs to the drug [1]: sensitive

SMILES: CC[C@H]1/C=C/C=C/C[C@@H](C)[C@H](O)[C@@](C)(O)C(=O)[C@@H](C)[C@H](O)[C@@H](C)C(=O)[C@@H](C)[C@H](O)[C@@H](C)/C=C/C(=O)O[C@@H]2[C@H](C)[C@H](CC1)O[C@]1(CC[C@H](C)[C@H](C[C@@H](C)O)O1)[C@H]2C [oligomycin]
- inhibition of CSC propagation / 3D spheroid formation (in words) [2]: effectively blocked

SMILES: COc1ccc([C@@H]2CC(=O)c3c(O)cc(O[C@@H]4O[C@H](COC(=O)CC(C)(O)CC(=O)O)[C@@H](O)[C@H](O)[C@H]4O[C@@H]4O[C@@H](C)[C@H](O)[C@@H](O)[C@H]4O)cc3O2)cc1O (some centres unmarked) [brutieridin]
- inhibition of CSC propagation / 3D spheroid formation (in words) [2]: inhibit
- inhibition of mevalonate metabolism [3]: inhibit

SMILES: [Cl-].c1ccc2c(c1)[I+]c1ccccc1-2 [DPI, diphenyleneiodium chloride]
- pIC50 [2]: ~8.52
- potency for targeting CSCs relative to Palbociclib ([2]; versus Palbociclib): approximately 30 times

SMILES: CC(=O)c1c(C)c2cnc(Nc3ccc(N4CCNCC4)cn3)nc2n(C2CCCC2)c1=O [Palbociclib]
- pIC50 [2]: ~7.00

SMILES: CCN(CC)CCCC(C)Nc1ccnc2cc(Cl)ccc12 (centres unmarked) [Chloroquine]
- sensitivity of DoxyR-CSCs to the drug [1]: sensitive

SMILES: O=C1O[C@H]([C@@H](O)CO)C(O)=C1O [Vitamin C]
- sensitivity of DoxyR-CSCs to the drug [1]: sensitive
